From patent US6492416B1, “4,5-diaryl-3(2H)-furanone derivatives as cyclooxygenase-2 inhibitors” (Pacific Corporation, priority 1999, dated 2002)
Converted amounts (≈) assume the structure as drawn.

How the values were obtained:
COX-1 = biological target: T1, COX-1 (Mus musculus, UniProt P22437); assay: Evaluation of COX-1 activity: PGE2 formation in mouse peritoneal macrophages without aspirin and LPS treatment; format: cell-based; settings: for IC50: read-out: IC50, μg/ml COX-1 (converted)
T1 sequence (P22437 27-602): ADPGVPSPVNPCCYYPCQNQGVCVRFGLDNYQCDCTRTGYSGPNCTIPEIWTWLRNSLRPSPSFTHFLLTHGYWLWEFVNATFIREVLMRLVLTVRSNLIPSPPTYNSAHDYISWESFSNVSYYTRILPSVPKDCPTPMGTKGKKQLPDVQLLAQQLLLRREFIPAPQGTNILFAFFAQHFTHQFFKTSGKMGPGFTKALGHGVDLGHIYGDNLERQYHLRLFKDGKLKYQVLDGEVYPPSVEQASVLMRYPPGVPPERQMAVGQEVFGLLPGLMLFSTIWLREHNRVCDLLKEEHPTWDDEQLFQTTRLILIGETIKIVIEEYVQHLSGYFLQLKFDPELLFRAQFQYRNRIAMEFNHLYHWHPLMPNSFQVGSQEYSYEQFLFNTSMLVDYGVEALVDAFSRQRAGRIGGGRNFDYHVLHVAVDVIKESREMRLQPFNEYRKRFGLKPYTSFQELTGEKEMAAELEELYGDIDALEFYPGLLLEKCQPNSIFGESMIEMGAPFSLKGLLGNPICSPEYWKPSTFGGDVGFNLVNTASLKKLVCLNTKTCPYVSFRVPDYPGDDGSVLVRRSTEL
Description: (§1) Evaluation of in vitro COX-2 and COX-1 Activity [J. Pharmacol. Exp. Ther. 166, 96 (1969)]
(§2) The abdominal skin of a C57BL/6 mouse was sanitized with 70% aqueous ethanol, and was removed without damaging the peritoneum. 5 ml of cold phosphate buffer solution (PBS) was then injected into the abdominal cavity. After a minute, the peritoneal fluid containing the macrophages was collected using a syringe and a needle. The collected fluid was centrifuged for 5 min at 1500 rpm to afford pellets of cells. The pellets were then dispersed in the RPMI-1640 culture medium containing 100 units/ml penicillin and 100 μg/ml streptomycin.
(§3) The pellets dispersed as above were treated with 500 μM aspirin in order to knock out the activity of the COX-1 enzymes in the cells. The suspension was then diluted with the RPMI-1640 medium to contain 1×10^6 cells/ml. 100 μl of the suspension was added to each well of a 96-well ELISA plate. Then the plate was incubated for 2 hrs at 37° C. under 5% CO2 in order to fix the macrophages onto the plate. The cells, which were not fixed onto the plate were removed by washing with PBS two times. The purity of macrophages obtained thereby was confirmed by differential counting. The RPMI-1640 medium containing 3% fetal bovine serum albumin was added to each well of the plate, which was followed by stimulation with 10 μg/ml lipopolysaccharide (LPS). Usually 5×10^5 cells/ml were present by this preparation. The LPS-treated suspensions were incubated for 16 hours at 37° C. under 5% CO2 to induce COX-2. Then the culture medium was removed and the macrophages were washed two times with PBS. Then 130 μl RPMI-1640 culture medium was added to each well and the macrophage solutions were incubated at 37° C. for 10 minutes, which was followed by the treatment with 10 μM arachidonic acid and an appropriate amount of compounds of this invention. The plate was incubated for another 10 minutes. The upper solution was collected using a micropipette and was subjected to determination of PGE2 amount in the solution. The amount of PGE2 present in the collected solution was determined either by a known radio-immuno assay or by a known enzyme-immunoassay [Methods in Enzymol. 86, 258 (1982); Methods in Enzymol. 187, 24 (1990)]. The extent of COX-2 inhibition by a compound of the present invention was calculated by assuming, that the amount of PGE2 formed with the treatment of 10 μg/ml arachidonic acid was used is the maximum possible amount of PGE2, and that the amount of PGE2 formed without the treatment of arachidonic acid is the minimum possible amount of PGE2.
In the evaluation of COX-1 inhibitory activity by a compound of the present invention, the same procedures employed for evaluation of COX-2 activity were employed, except omitting the following two steps: 1) the treatment with aspirin for knockout of COX-1 activity and 2) treatment with LPS for induction of COX-2.
(§4) In order to determine IC50 for a compound of this invention, enzymatic activities were measured at multiple concentrations of compounds of this invention around IC50 of the compound. Usually enzymatic activities at 4˜5 concentrations were measured to calculate out IC50 for a compound of this invention.

COX-2 = biological target: T2, COX-2 (Mus musculus, UniProt Q05769); assay: Evaluation of COX-2 activity: PGE2 formation in aspirin-treated, LPS-stimulated mouse peritoneal macrophages; format: cell-based; settings: for IC50: read-out: IC50, μg/ml COX-2 (converted)
T2 sequence (Q05769 18-604): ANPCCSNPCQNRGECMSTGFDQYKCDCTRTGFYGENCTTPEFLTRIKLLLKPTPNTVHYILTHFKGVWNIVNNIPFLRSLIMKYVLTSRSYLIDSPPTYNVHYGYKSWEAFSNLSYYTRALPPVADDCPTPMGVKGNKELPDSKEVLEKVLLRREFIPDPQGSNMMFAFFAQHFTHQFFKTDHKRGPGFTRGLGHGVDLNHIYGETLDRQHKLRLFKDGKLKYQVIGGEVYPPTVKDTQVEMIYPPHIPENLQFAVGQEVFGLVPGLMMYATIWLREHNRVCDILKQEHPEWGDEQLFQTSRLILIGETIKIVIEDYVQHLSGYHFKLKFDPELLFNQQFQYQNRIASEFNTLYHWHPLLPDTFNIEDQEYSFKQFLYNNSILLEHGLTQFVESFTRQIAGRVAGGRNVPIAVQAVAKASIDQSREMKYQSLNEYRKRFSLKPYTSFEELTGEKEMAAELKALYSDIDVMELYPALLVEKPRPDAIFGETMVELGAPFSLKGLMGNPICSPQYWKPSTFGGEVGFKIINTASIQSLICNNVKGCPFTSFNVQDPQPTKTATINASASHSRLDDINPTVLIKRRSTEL
Description: as §1, §2
as §3, with “The purity of macrophages obtained thereby was confirmed by differential counting.” left out, “Usually 5×10^5 cells/ml were present by this preparation.” left out
as §4

Row | IC50, μg/ml COX-1 (COX-1) [µg/mL] | IC50, μg/ml COX-2 (COX-2) [µg/mL] | IC50 (COX-1) [µM] | IC50 (COX-2) [µM] | melting point [°C] | Compound
1 | 30 (≈ 86.1 µM) | 0.2 (≈ 0.574 µM) | – | – | – | CC1(C)OC(c2ccc(S(C)(=O)=O)cc2)=C(c2ccsc2)C1=O [Example 17, 2,2-Dimethyl-5-{4-(methylsulfonyl)phenyl}4-(3-thienyl)-3(2H)-furanone]
2 | 3 (≈ 7.97 µM) | 0.03 (≈ 0.0797 µM) | – | – | – | CCC1(C)OC(c2ccc(S(C)(=O)=O)cc2)=C(c2ccc(C)s2)C1=O (stereo not shown) [Example 225]
3 | 30 (≈ 90.3 µM) | 0.2 (≈ 0.602 µM) | – | – | – | CC1(C)OC(c2ccc(S(C)(=O)=O)cc2)=C(c2ccco2)C1=O [Example 18, 2,2-Dimethyl-4-(2-furanyl)-5-{4-(methylsulfonyl)phenyl}-3(2H)-furanone]
4 | 30 (≈ 76.3 µM) | 0.08 (≈ 0.203 µM) | – | – | – | Cc1cc(C2=C(c3cc(F)cc(F)c3)C(=O)C(C)(C)O2)ccc1S(N)(=O)=O [Example 384, 5-{4-(Aminosulfonyl)-3-methylphenyl}-4-(3-difluorophenyl)-2,2-dimethyl-3(2H)-furanone]
5 | – | – | 50.2 | 0.251 | – | CCC1(C)OC(c2ccc(S(C)(=O)=O)cc2)=C(c2cccc(C(C)C)c2)C1=O (stereo not shown) [Example 201]
6 | 50 (≈ 140 µM) | 0.2 (≈ 0.56 µM) | – | – | – | CCC1(C)OC(c2ccc(S(C)(=O)=O)cc2)=C(c2cccnc2)C1=O (stereo not shown) [Example 36, 2-Ethyl-2-methyl-5-{4-(methylsulfonyl)phenyl}-4-(3-pyridyl)-3(2H)-furanone]
7 | 30 (≈ 65.8 µM) | 0.02 (≈ 0.0439 µM) | – | – | – | CC1(C)OC(c2ccc(S(C)(=O)=O)c(Br)c2)=C(c2cccc(Cl)c2)C1=O [Example 342]
8 | 30 (≈ 80.5 µM) | 0.1 (≈ 0.268 µM) | – | – | – | COc1cccc(C2=C(c3ccc(S(C)(=O)=O)cc3)OC(C)(C)C2=O)c1 [Example 95]
9 | – | – | 7.53 | 0.0753 | – | CCCc1ccc(C2=C(c3ccc(S(C)(=O)=O)cc3)OC(C)(CC)C2=O)cc1 (stereo not shown) [Example 202]
10 | 200 (≈ 437 µM) | 0.08 (≈ 0.175 µM) | – | – | – | CC1(C)OC(c2ccc(S(C)(=O)=O)c(Br)c2)=C(c2cc(F)ccc2F)C1=O [Example 344]
11 | 50 (≈ 133 µM) | – | – | – | 100 to 103 | CC1(C)OC(c2ccc(S(C)(=O)=O)cc2)=C(c2ccccc2Cl)C1=O [Example 69]
12 | 20 (≈ 55.3 µM) | 0.03 (≈ 0.083 µM) | – | – | – | CC1(C)OC(c2ccc(S(N)(=O)=O)c(F)c2)=C(c2ccccc2)C1=O [Example 300, 5-{4(Aminosulfonyl)-3-fluorophenyl}-2,2-dimethyl-4-phenyl-3(2H)-furanone]
13 | 30 (≈ 79.6 µM) | 0.05 (≈ 0.133 µM) | – | – | – | CC1(C)OC(c2ccc(S(C)(=O)=O)c(Cl)c2)=C(c2ccccc2)C1=O [Example 357, 5-{3-Chloro-4(methylsulfonyl)phenyl}-2,2-dimethyl-4-phenyl-3(2H)-furanone]
14 | 20 (≈ 55.2 µM) | 0.3 (≈ 0.828 µM) | – | – | – | C[S+]([O-])c1ccc(C2=C(c3cccc(F)c3)C(=O)C(C)(C)O2)cc1F (stereo not shown) [Example 290, 2,2-Dimethyl-5-{3-fluoro-4-(methylsulfinyl)phenyl)-4-(3-fluorophenyl)-3(2H)-furanone]
15 | 20 (≈ 47.8 µM) | 0.03 (≈ 0.0717 µM) | – | – | – | CCC1(CC)OC(c2ccc(S(C)(=O)=O)cc2)=C(c2ccc(OC)c(F)c2)C1=O [Example 50, 2,2-Diethyl-4-(3-fluoro-4-methoxyphenyl)-5-{4-(methylsulfonyl)phenyl}-3(2H)-furanone]
16 | 3 (≈ 8.7 µM) | 0.5 (≈ 1.45 µM) | – | – | – | CSc1ccc(C2=C(c3cccc(Cl)c3)C(=O)C(C)(C)O2)cc1 [Example 168, 4-(3-chlorophenyl)-2,2-dimethyl-5-{4-(methylthio)phenyl}-3(2H)-furanone]
17 | – | – | 77.6 | 0.776 | – | CCC1(C)OC(c2ccc(S(C)(=O)=O)cc2)=C(c2cccc(OC)c2)C1=O (stereo not shown) [Example 200]
18 | 3 (≈ 8.61 µM) | 0.03 (≈ 0.0861 µM) | – | – | – | CC1(C)OC(c2ccc(S(C)(=O)=O)cc2)=C(c2cccs2)C1=O [Example 113]
19 | 50 (≈ 129 µM) | 0.3 (≈ 0.776 µM) | – | – | – | CC(O)c1ccc(C2=C(c3ccc(S(C)(=O)=O)cc3)OC(C)(C)C2=O)cc1 (stereo not shown) [Example 111, 2,2-Dimethyl-4-{4-(1-hydroxyethyl)phenyl}-5-{4-(methylsulfonyl)phenyl}-3(2H)-furanone]
20 | 5 (≈ 13.6 µM) | 0.03 (≈ 0.0814 µM) | – | – | – | CS(=O)(=O)c1ccc(C2=C(c3ccccc3)C(=O)C3(CCCC3)O2)cc1 [Example 53, 2-{(4-Methylsulfonyl)phenyl}-3phenyl-1-oxa-spiro[4,4]non-2-en-4-one]
21 | 5 (≈ 13.2 µM) | – | – | – | 162 | CC1(C)OC(c2ccc(S(C)(=O)=O)cc2)=C(c2ccc(F)c(F)c2)C1=O [Example 80]
22 | – | 0.05 (≈ 0.122 µM) | – | – | – | CC(C)c1ccc(C2=C(c3ccc(S(C)(=O)=O)cc3)OC3(CCCC3)C2=O)cc1 [Example 54, 3-(4-Isopropylphenyl)-2-{4-(methylsulfonyl)phenyl}-1-oxa-spiro[4,4]non-2-en-4-one]
